Data: patent EP0673922A1, “Non-ionic iodinated dimers as X-ray contrast agents, process for their preparation and pharmaceutical compositions containing them” (CENTRO INVESTIGACION JUSTESA IMAGEN S.A., priority 1994, dated 1995)

Assays:
Solubility in water = format: physicochemical
[1] = Osmolality of aqueous solution; format: physicochemical
Experimental: (§1) Die Produkte der Erfindung der allgemeinen Formel I sind durch eine gute Löslichkeit in Wasser bei 20°C, eine Osmolalität in wässriger Lösung, die kleiner als die Osmolalität des Blutes (280 mOs/kg) ist, sowie durch eine niedrige allgemeine Toxizität gekennzeichnet, die als […] (LD₅₀) in Ratte bei intravenöser Gabe ausgedrückt wird.

[2] = Viscosity of aqueous solution; format: physicochemical
Ratte = assay: General (acute) toxicity, LD50 after intravenous administration; format: in vivo; conditions: rat, intravenous administration (b7)
Experimental: as §1

Row | Compound | Löslichkeit in Wasser bei 20°C und 300 mg I/ml (Solubility in water) [%] | Osmolatität bei 37°C und 300 mg I/ml [1] [mOs/kg] | Viskosität bei 37°C und 300 mg I/ml [2] | LD₅₀ Ratte (Ratte) [g I/kg]
1 | CNC(=O)c1c(I)c(C(=O)NCC(O)CO)c(I)c(N(CCO)C(=O)C(O)C(=O)N(CCO)c2c(I)c(C(=O)NC)c(I)c(C(=O)NCC(O)CO)c2I)c1I (stereo not drawn) [Beispiel 1, N,N-Bis-(2-hydroxyethyl)-N,N'-bis-(3-[N-(2,3-dihydroxypropyl)carbamoyl]-5-(N-methylcarbamoyl)-2,4,6-triiodphenyl}hydroxymalonamid] | <60 | – | – | –
2 | CNC(=O)c1c(I)c(C(=O)NCC(O)CO)c(I)c(N(CC(O)CO)C(=O)C(O)C(=O)N(CC(O)CO)c2c(I)c(C(=O)NC)c(I)c(C(=O)NCC(O)CO)c2I)c1I (stereo not drawn) [Beispiel 2, N,N'-Bis-(2,3-dihydroxypropyl)-N,N'-bis-{3-[N-(2,3-dihydroxypropyl)carbamoyl]-5-(N-methylcarbamoyl)-2,4,6-triiodphenyl}-hydroxymalonamid] | <60 | – | – | –
3 | O=C(NCCO)c1c(I)c(C(=O)NCC(O)CO)c(I)c(N(CCO)C(=O)CC(=O)N(CCO)c2c(I)c(C(=O)NCCO)c(I)c(C(=O)NCC(O)CO)c2I)c1I (stereo not drawn) [Beispiel 3, N,N'-Bis-(2-hydroxyethyl)-N,N'-bis-{3-[N-(2,3-dihydroxypropyl)-carbamoyl]-5-[N-(2-hydroxyethyl)carbamoyl]-2,4,6-triiodphenyl}-malonamid] | >60 | 160 | 7,5 mPa·s | >15
4 | O=C(NCCO)c1c(I)c(C(=O)NCC(O)CO)c(I)c(N(CC(O)CO)C(=O)CC(=O)N(CC(O)CO)c2c(I)c(C(=O)NCCO)c(I)c(C(=O)NCC(O)CO)c2I)c1I (stereo not drawn) [Beispiel 4, N,N'-Bis-(2,3-hydroxypropyl)-N,N'-bis-{3-[N-(2,3-dihydroxypropyl)carbamoyl]-5-[N-(2-hydroxyethyl)carbamoyl]-2,4,6-triiodphenyl}malonamid] | >60 | 190 | 6,8 mPa·s | >15
5 | CN(C(=O)C(O)C(=O)N(C)c1c(I)c(C(N)=O)c(I)c(C(=O)NCC(O)CO)c1I)c1c(I)c(C(N)=O)c(I)c(C(=O)NCC(O)CO)c1I (stereo not drawn) [Beispiel 5, N,N'-Dimethyl-N,N'-bis-{5-carbamoyl-3-[N-(2,3-dihydroxypropyl)carbamoyl]-2,4,6-triiodphenyl}hydroxymalonamid] | <60 | – | – | –
6 | CN(C(=O)C(O)C(=O)N(C)c1c(I)c(C(N)=O)c(I)c(C(=O)NC(CO)C(O)CO)c1I)c1c(I)c(C(N)=O)c(I)c(C(=O)NC(CO)C(O)CO)c1I (stereo not drawn) [Beispiel 6, N,N'-Dimethyl-N,N'-bis-{5-carbamoyl-3-[N-(1-hydroxymethyl-2,3-dihydroxypropyl)carbamoyl]-2,4,6-triiodphenyl}-hydroxymalonamid] | <60 | – | – | –
7 | CN(C(=O)C(O)C(=O)N(C)c1c(I)c(C(=O)NCC(O)CO)c(I)c(C(=O)NCC(O)CO)c1I)c1c(I)c(C(N)=O)c(I)c(C(=O)NCC(O)CO)c1I (stereo not drawn) [Beispiel 7, N,N'-Dimethyl-N-{5-carbamoyl-3-[N-(2,3-dihydroxypropyl)carbamoyl]-2,4,6-triiodphenyl}-N'-{3,5-bis-[N-(2,3-dihydroxypropyl)carbamoyl]-2,4,6-triiodphenyl}hydroxymalonamid] | >60 | 170 | 8,1 mPa·s | >15
8 | NC(=O)c1c(I)c(C(=O)NCC(O)CO)c(I)c(N(CCO)C(=O)C(O)C(=O)N(CCO)c2c(I)c(C(N)=O)c(I)c(C(=O)NCC(O)CO)c2I)c1I (stereo not drawn) [Beispiel 8, N,N'-Bis-(2-hydroxyethyl)-N,N'-bis-{5-carbamoyl-3-[N-(2,3-dihydroxypropyl)carbamoyl]-2,4,6-triiodphenyl}-hydroxymalonamid] | <60 | – | – | –
9 | NC(=O)c1c(I)c(C(=O)NC(CO)C(O)CO)c(I)c(N(CCO)C(=O)C(O)C(=O)N(CCO)c2c(I)c(C(N)=O)c(I)c(C(=O)NC(CO)C(O)CO)c2I)c1I (stereo not drawn) [Beispiel 9, N,N'-Bis-(2-hydroxyethyl)-N,N'-bis-{5-carbamoyl-3-[N-(1-hydroxymethyl-2,3-dihydroxy-propyl)carbamoyl]-2,4,-6-triiodphenyl}hydroxymalonamid] | <60 | – | – | –
10 | O=C(NCCO)c1c(I)c(C(=O)NCC(O)CO)c(I)c(N(CCO)C(=O)C(O)C(=O)N(CCO)c2c(I)c(C(=O)NCCO)c(I)c(C(=O)NCC(O)CO)c2I)c1I (stereo not drawn) [Beispiel 10, N,N'-Bis-(2-hydroxyethyl)-N,N'-bis-{3-[N-(2,3-dihydroxypropyl)carbamoyl]-5-[N-(2-hydroxyethyl)carbamoyl]-2,4,6-triiodphenyl}hydroxymalonamid] | >60 | 170 | 7,3 mPa·s | >15
11 | O=C(NCCO)c1c(I)c(C(=O)NCC(O)CO)c(I)c(N(CC(O)CO)C(=O)C(O)C(=O)N(CC(O)CO)c2c(I)c(C(=O)NCCO)c(I)c(C(=O)NCC(O)CO)c2I)c1I (stereo not drawn) [Beispiel 11, N,N'-Bis-(2,3-dihydroxypropyl)-N,N'-bis-{3-[N-(2,3-dihydroxypropyl)carbamoyl]-5-[N-(2-hydroxyethyl)carbamoyl]-2,4,6-triiodphenyl}hydroxymalonamid] | >60 | 210 | 7,8 mPa·s | >15
12 | NC(=O)c1c(I)c(C(=O)NCC(O)CO)c(I)c(N(CC(O)CO)C(=O)C(O)C(=O)N(CC(O)CO)c2c(I)c(C(N)=O)c(I)c(C(=O)NCC(O)CO)c2I)c1I (stereo not drawn) [Beispiel 12, N,N'-Bis-(2,3-dihydroxypropyl)-N,N'-bis-{5-carbamoyl-3-[N-(2,3-dihydroxypropyl)carbamoyl]-2,4,6-triiodphenyl}-hydroxymalonamid] | >60 | 240 | 6,5 mPa·s | >15
13 | CN(C(=O)C(=O)C(=O)N(C)c1c(I)c(C(=O)NCC(O)CO)c(I)c(C(=O)NCC(O)CO)c1I)c1c(I)c(C(=O)NCC(O)CO)c(I)c(C(=O)NCC(O)CO)c1I (stereo not drawn) [Beispiel 13, N,N'-Dimethyl-N,N'-bis-{3,5-bis[N-(2,3-dihydroxypropyl)carbamoyl]-2,4,6-triiodphenyl}cetomalonamid] | >60 | 160 | 10,9 mPa·s | >15
14 | CN(C(=O)C(=O)C(=O)N(C)c1c(I)c(C(N)=O)c(I)c(C(=O)NCC(O)CO)c1I)c1c(I)c(C(N)=O)c(I)c(C(=O)NCC(O)CO)c1I (stereo not drawn) [Beispiel 14, N,N'-Dimethyl-N,N'-bis-{5-carbamoyl-3-[N-(2,3-dihydroxypropyl)carbamoyl]-2,4,6-triiodphenyl}cetomalonamid] | <60 | – | – | –
15 | CC(=O)N(CC(O)CN(C(C)=O)c1c(I)c(C(=O)NCC(O)CO)c(I)c(C(=O)NCC(O)CO)c1I)c1c(I)c(C(=O)NCC(O)CO)c(I)c(C(=O)NCC(O)CO)c1I (stereo not drawn) [IODIXANOL, Iodixanol, reference compound] | >60 | 200 | 8,7 mPa·s | >15
